Values of other authors in US9956241B2, “Application of American Ginseng to enhance neurocognitive function” (priority 2009, dated 2018).

How the values were obtained:
[1] = test system: choline acetyltransferase and nerve growth factor messenger RNA; conditions: rat brains
[2] = test system: central cholinergic nerve endings
[3] = test system: brain serotonin concentrations; conditions: in vivo
plasma corticosterone = conditions: rodents
[4] = test system: LTP in the hippocampal formation; conditions: in vivo; rats
[5] = test system: choline acetyltransferase; conditions: rodent brains
[6] = test system: human neuronal nicotinic acetylcholine receptors
[7] = test system: synaptosomal uptake of norepinephrine, dopamine, serotonin and GABA

Question: Which results are given for `CC(C)=CCC[C@](C)(O[C@@H]1O[C@H](CO[C@@H]2O[C@H](CO)[C@@H](O)[C@H](O)[C@H]2O)[C@@H](O)[C@H](O)[C@H]1O)[C@H]1CC[C@]2(C)[C@@H]1[C@H](O)C[C@@H]1[C@@]3(C)CC[C@H](O[C@@H]4O[C@H](CO)[C@@H](O)[C@H](O)[C@H]4O[C@@H]4O[C@H](CO)[C@@H](O)[C@H](O)[C@H]4O)C(C)(C)[C@@H]3CC[C@]12C` [Rb1, ginsenoside Rb1]?
Answer: expression of choline acetyltransferase and nerve growth factor messenger RNA [1]: increased expression; acetylcholine release and reuptake, number of choline uptake sites ([2]; hippocampus, to a lesser extent cortex): modulation; acetylcholine release ([2]; isolated Rb1): stimulate acetylcholine release; synaptosomal choline uptake ([2]; isolated Rb1): increase synaptosomal choline uptake; brain serotonin concentrations [3]: marked alterations; stress-induced increases in plasma corticosterone (plasma corticosterone): inhibit; LTP in the hippocampal formation [4]: modulation of LTP; choline acetyltransferase levels [5]: increase choline acetyltransferase levels

Question: For `CC(C)=CCC[C@](C)(O[C@@H]1O[C@H](CO)[C@@H](O)[C@H](O)[C@H]1O)[C@H]1CC[C@]2(C)[C@@H]1[C@H](O)C[C@@H]1[C@@]3(C)CC[C@H](O)C(C)(C)[C@@H]3[C@@H](O[C@@H]3O[C@H](CO)[C@@H](O)[C@H](O)[C@H]3O)C[C@]12C` [Rg1, ginsenoside Rg1], which brain serotonin concentrations [3] is on record?
Answer: Its brain serotonin concentrations is “marked alterations”.

Question: What about the choline acetyltransferase levels [5] of the same molecule?
Answer: Its choline acetyltransferase levels is “increase choline acetyltransferase levels”.

Question: Which “interaction with nicotinic receptor subtypes” value [6] does the source give for `CC(C)=CCC[C@](C)(O)[C@H]1CC[C@]2(C)[C@@H]1[C@H](O)C[C@@H]1[C@@]3(C)CC[C@H](O)C(C)(C)[C@@H]3[C@@H](O[C@@H]3O[C@H](CO)[C@@H](O)[C@H](O)[C@H]3O[C@@H]3O[C@@H](C)[C@H](O)[C@@H](O)[C@H]3O)C[C@]12C` [Rg2, ginsenoside Rg2] here?
Answer: Its value is “direct interaction”.

Question: With `CC(C)=CCC[C@](C)(O[C@@H]1O[C@H](CO)[C@@H](O)[C@H](O)[C@H]1O)[C@H]1CC[C@]2(C)[C@@H]1[C@H](O)C[C@@H]1[C@@]3(C)CC[C@H](O)C(C)(C)[C@@H]3[C@@H](O[C@@H]3O[C@H](CO)[C@@H](O)[C@H](O)[C@H]3O[C@@H]3O[C@@H](C)[C@H](O)[C@@H](O)[C@H]3O)C[C@]12C` [Re, ginsenoside Re] as the molecule, how does the “synaptosomal uptake of norepinephrine, dopamine, serotonin and GABA” value [7] read?
Answer: The value was “may inhibit”.

Question: For `CC(C)=CCC[C@](C)(O[C@@H]1O[C@H](CO)[C@@H](O)[C@H](O)[C@H]1O)[C@H]1CC[C@]2(C)[C@@H]1[C@H](O)C[C@@H]1[C@@]3(C)CC[C@H](O[C@@H]4O[C@H](CO)[C@@H](O)[C@H](O)[C@H]4O[C@@H]4O[C@H](CO)[C@@H](O)[C@H](O)[C@H]4O)C(C)(C)[C@@H]3CC[C@]12C` [Rd, ginsenoside Rd], which “synaptosomal uptake of norepinephrine, dopamine, serotonin and GABA” value [7] is on record?
Answer: The value was “may inhibit”.

Question: And the corticosterone secretion (corticosterone secretion)?
Answer: Its corticosterone secretion is “affect corticosterone secretion”.
